Measurements: patent US20070128217A1 (priority 2003, published 2007)

Assays:
[1] = system: antibodies in sera from SARS patients (sera 1a, 1b, 2, 6, 37, 62, London, SARS-yellow, SARS-green); format: binding, human; design: Binding of serum 6 to linear peptides of protein X1 of SARS-CoV Urbani / Binding of serum 37 to linear peptides of protein X1 of SARS-CoV Urbani / Binding of serum 6 to looped/cyclic peptide (PEPSCAN-ELISA) / Binding of serum 37 to looped/cyclic peptide (PEPSCAN-ELISA) / Binding of serum 37 to looped/cyclic peptides of protein X1 of SARS-CoV Urbani / Binding of serum 6 to linear peptides of protein X2 / Binding of serum 37 to linear peptides of protein X2 / Binding of serum 37 to looped/cyclic peptides of protein X2 of SARS-CoV Urbani / Binding of serum 6 to linear peptides of protein M of SARS-CoV Urbani / Binding of serum 37 to linear peptides of protein M of SARS-CoV Urbani / Binding of serum 6 to looped/cyclic peptides of protein M of SARS-CoV Urbani / Binding of serum 37 to looped/cyclic peptides of protein M of SARS-CoV Urbani / Binding of serum 6 to linear peptides of protein X3 of SARS-CoV Urbani / Binding of serum 37 to linear peptides of protein X3 of SARS-CoV Urbani / Binding of serum 37 to looped/cyclic peptides of protein X3 of SARS-CoV Urbani / Binding of serum 6 to linear peptides of protein X4 of SARS-CoV Urbani / Binding of serum 37 to linear peptides of protein X4 of SARS-CoV Urbani / Binding of serum 37 to looped/cyclic peptides of protein X4 of SARS-CoV Urbani / Binding of serum 6 to linear peptides of protein X5 of SARS-CoV Urbani / Binding of serum 37 to linear peptides of protein X5 of SARS-CoV Urbani / Binding of serum 37 to looped/cyclic peptides of protein X5 of SARS-CoV Urbani / Binding of serum 6 to linear peptides of protein N of SARS-CoV Urbani / Binding of serum 37 to linear peptides of protein N of SARS-CoV Urbani / Binding of serum 6 to linear peptide (PEPSCAN-ELISA) / Binding of serum 1a to looped/cyclic peptides of protein N of SARS-CoV Urbani / Binding of serum 1b to looped/cyclic peptides of protein N of SARS-CoV Urbani / Binding of serum 2 to looped/cyclic peptides of protein N of SARS-CoV Urbani / Binding of serum 6 to looped/cyclic peptides of protein N of SARS-CoV Urbani / Binding of serum 37 to looped/cyclic peptides of protein N of SARS-CoV Urbani / Binding of serum 62 to looped/cyclic peptides of protein N of SARS-CoV Urbani / Binding of serum London to looped/cyclic peptides of protein N of SARS-CoV Urbani / Binding of serum SARS-green to looped/cyclic peptides of protein N of SARS-CoV Urbani: unit not given here
[2] = system: control sera (pooled serum of ten healthy LUMC hospital workers; commercial negative donor pooled serum from the Dutch bloodbank); format: binding, human; design: Binding of Control serum LUMC to linear peptides / Binding of Control serum Blood-bank to linear peptides / Binding of Control serum LUMC to looped peptides / Binding of Control Serum Blood-Bank to Looped peptides / Binding of Control serum LUMC to linear peptides of the protein M of SARS-CoV Urbani / Binding of Control serum Blood-bank to linear peptides of the protein M of SARS-CoV Urbani / Binding of Control serum LUMC to looped peptides of the protein M of SARS-CoV Urbani / Binding of Control Serum Blood-Bank to Looped peptides of the protein M of SARS-CoV Urbani: unit not given here
[3] = system: rabbit serum obtained by immunizing a rabbit with the SARS-CoV strain Frankfurt 1; format: binding; design: Binding of a rabbit serum to linear peptides / Binding of a rabbit serum to looped peptides / Rabbit serum linear peptides / Rabbit serum looped peptides / Binding of a rabbit serum to linear peptides of protein N of SARS-CoV Urbani (Rabbit serum linear peptides) / Binding of a rabbit serum to looped/cyclic peptides of protein N of SARS-CoV Urbani (Rabbit serum looped peptides): unit not given here
[4] = system: recombinant human anti-SARS-CoV antibody 03-018; format: binding; design: Binding of antibody 03-018 to linear peptides of the N protein of SARS-CoV Urbani / Binding of antibody 03-018 to looped/cyclic peptides of the N protein of SARS-CoV Urbani: unit not given here

Sequence	Binding of serum 1a to linear peptides of protein N of SARS-CoV Urbani [1]	Binding of serum 1a to looped/cyclic peptides of protein N of SARS-CoV Urbani [1]	Binding of serum 1b to linear peptides of protein N of SARS-CoV Urbani [1]	Binding of serum 1b to looped/cyclic peptides of protein N of SARS-CoV Urbani [1]	Binding of serum 2 to linear peptides of protein N of SARS-CoV Urbani [1]	Binding of serum 2 to looped/cyclic peptides of protein N of SARS-CoV Urbani [1]	Binding of serum 6 to linear peptides of protein N of SARS-CoV Urbani [1]	Binding of serum 6 to looped/cyclic peptides of protein N of SARS-CoV Urbani [1]	Binding of serum 37 to linear peptides of protein N of SARS-CoV Urbani [1]	Binding of serum 37 to looped/cyclic peptides of protein N of SARS-CoV Urbani [1]	Binding of serum 62 to linear peptides of protein N of SARS-CoV Urbani [1]	Binding of serum 62 to looped/cyclic peptides of protein N of SARS-CoV Urbani [1]	Binding of serum London to linear peptides of protein N of SARS-CoV Urbani [1]	Binding of serum London to looped/cyclic peptides of protein N of SARS-CoV Urbani [1]	Binding of serum SARS-green to linear peptides of protein N of SARS-CoV Urbani [1]	Binding of serum SARS-green to looped/cyclic peptides of protein N of SARS-CoV Urbani [1]	Binding of serum SARS-yellow to linear peptides of protein N of SARS-CoV Urbani [1]	Binding of serum SARS-yellow to looped/cyclic peptides of protein N of SARS-CoV Urbani [1]	Binding of Control Serum Blood-Bank to Looped peptides [2]	Binding of Control serum Blood-bank to linear peptides [2]	also measured
STDNNQNGGRNGARP	0.2	0.3	0.1	0.2	0.2	0.3	0.1	0.2	0.8	0.5	0.7	0.2	0.5	0.3	0.4	0.4	0.6	0.3	0.5	0.7	Binding of Control serum LUMC to linear peptides [2]: 0.6; Binding of Control serum LUMC to looped peptides [2]: 0.5; Binding of a rabbit serum to linear peptides of protein N of SARS-CoV Urbani (Rabbit serum linear peptides) [3]: 0.1; Binding of a rabbit serum to looped/cyclic peptides of protein N of SARS-CoV Urbani (Rabbit serum looped peptides) [3]: 0.2; Binding of antibody 03-018 to linear peptides of the N protein of SARS-CoV Urbani [4]: 0.2; Binding of antibody 03-018 to looped/cyclic peptides of the N protein of SARS-CoV Urbani [4]: 0.2
TALTQHGKEELRFPR	0.2	0.4	0.1	0.3	0.2	0.6	0.1	0.5	0.7	0.8	0.6	0.6	0.5	0.6	0.4	0.7	0.5	0.7	0.8	0.8	Binding of Control serum LUMC to linear peptides [2]: 0.6; Binding of Control serum LUMC to looped peptides [2]: 0.8; Binding of a rabbit serum to linear peptides of protein N of SARS-CoV Urbani (Rabbit serum linear peptides) [3]: 0.1; Binding of a rabbit serum to looped/cyclic peptides of protein N of SARS-CoV Urbani (Rabbit serum looped peptides) [3]: 0.4; Binding of antibody 03-018 to linear peptides of the N protein of SARS-CoV Urbani [4]: 0.1; Binding of antibody 03-018 to looped/cyclic peptides of the N protein of SARS-CoV Urbani [4]: 0.3
TASWFTALTQHGKEE	0.2	0.2	0.1	0.1	0.1	0.1	0.1	0.1	0.7	0.4	0.4	0.2	0.4	0.3	0.3	0.1	0.5	0.2	0.4	0.6	Binding of Control serum LUMC to linear peptides [2]: 0.5; Binding of Control serum LUMC to looped peptides [2]: 0.3; Binding of a rabbit serum to linear peptides of protein N of SARS-CoV Urbani (Rabbit serum linear peptides) [3]: 0.1; Binding of a rabbit serum to looped/cyclic peptides of protein N of SARS-CoV Urbani (Rabbit serum looped peptides) [3]: 0.7; Binding of antibody 03-018 to linear peptides of the N protein of SARS-CoV Urbani [4]: 0.1; Binding of antibody 03-018 to looped/cyclic peptides of the N protein of SARS-CoV Urbani [4]: 0.2
